# Laboratory results reported in publication doi:10.1101/2020.06.18.159418v1 (biorxiv, 2020).
# Assays:
# Format in all cases: binding
# HuPrP90-231 [1] = biological target: T1, HuPrP90-231 (Homo sapiens, UniProt P04156); experiment: biochemical
# T1 construct: gene PRNP
# HuPrP90-231 [2] = biological target: T1, HuPrP90-231
# HuPrP23-231 = biological target: T2, HuPrP23-231 (Homo sapiens, UniProt P04156); details: 0.3-1 mM compound, 20 mM HEPES pH 7.4, 150 mM NaCl, 3% DMSO, 298 K
# T2 construct: gene PRNP
smiles,measurement,setting,value
"Cc1nc2cc(Cl)c(Cl)cc2[nH]1 [compound 1, 5,6-dichloro-2-methyl-1H-benzimidazole]",Kd,HuPrP90-231 [1],> 1000 µM
same,decrease in melting temperature,HuPrP90-231 [2],~ 0.2 °C
same,1H-15N TROSY NMR chemical shift perturbation,HuPrP23-231,we observed similar resonance shifts in the full-length protein HuPrP23-231
